# Reference: patent US9777297B2 (EASEL BIOTECHNOLOGIES, LLC, priority 2011, dated 2017)
# Test system: engineered E. coli
# Experiment: n-butyraldehyde toxicity incubation test in sealed tube, colony forming units versus time
# Assay type: cell-based
# Description: In all cases, including the case in which no addition is made, the number of colony forming units tends to a minimum value (e.g., cells no longer viable) after about 24 hours.
smiles,measurement,setting,value
CCCC=O [n-butyraldehyde],change in colony forming units per μL,"1.0 g/L n-butyraldehyde added, a little after 5 hours",net increase
same,change in colony forming units per μL,"1.2 g/L and above n-butyraldehyde added, at 4.5 hours",net decrease
